Experimental data taken from patent publication US20220226425A1, “METHOD OF TREATING MELANOCORTIN-4 RECEPTOR PATHWAY-ASSOCIATED DISORDERS” (RHYTHM PHARMACEUTICALS, INC., priority 2015, published 2022).
Where a SMILES comes first, the peptide text is derived from it. Bridges are numbered along the chain shown (N, C = ends). [ ]: non-standard residue; d: D form. Pen = CC(C)(S)[C@H](N)C(=O)O; hCys = N[C@@H](CCS)C(=O)O

Tests used:
Test in all cases: cAMP accumulation via β-galactosidase (β-Gal) reporter system (cAMP Hunter GPCR assay)
Format in all cases: cell-based
MC-1R = MC-1R (Homo sapiens, UniProt Q01726); settings: ratio of EC-50 values, MC-1R versus MC-4R
From the text: (§1) cAMP Accumulation Measurement via a β-Galactosidase (β-Gal) Reporter System
(§2) A chemiluminescence readout system that uses an enzyme fragment complementation (EFC) system with β-galactosidase (β-Gal) as the functional reporter system was used. This assay system for various melanocortin receptor systems is commercially available (cAMP Hunter GPCR assay system, Discoverx Corp, Fremont, Calif.). This assay utilizes the β-Gal enzyme that is split into two complementary portions; EA for Enzyme Acceptor and ED for Enzyme Donor. In the assay, the ED portion fused to cAMP is made to compete with cAMP generated by cells for binding to a cAMP-specific antibody. The EA is then added to form active β-Gal with any unbound ED-cAMP. […] Briefly, 10000 cells per well are plated overnight and each well (cells incubated with 10 μl assay buffer) is then incubated with 4X serial concentration of the test compound in the cell assay buffer (5 μL) and cAMP antibody reagent (5 μL) for 30 min at 37° C. The cell lysis buffer (20 μL) containing ED-cAMP coupled enzyme fragment and the reporter substrate (Emerald II-Galacton Star, 5:1) is then added and incubated for 60 min at room temperature. Next, 20 μL of EA β-Gal fragment reagent is added. After further incubation for 120 min at room temperature, the chemiluminescence is measured by a plate reader (Envision).

MC-3R = MC-3R (Homo sapiens, UniProt P41968); settings: for EC50: cAMP agonist readout, MC-3R, read-out: EC-50 (nM) MC-3R; for Selectivity Ratios MC4R/MC3R: ratio of EC-50 values, MC-3R versus MC-4R
From the text: as §1, §2

MC-5R = MC-5R (Homo sapiens, UniProt P33032); settings: for Selectivity Ratios MC4R/MC5R: ratio of EC-50 values, MC-5R versus MC-4R
From the text: as §1
A chemiluminescence readout system that uses an enzyme fragment complementation (EFC) system with β-galactosidase (β-Gal) as the functional reporter system was used. This assay system for various melanocortin receptor systems is commercially available (cAMP Hunter GPCR assay system, Discoverx Corp, Fremont, Calif.). This assay utilizes the β-Gal enzyme that is split into two complementary portions; EA for Enzyme Acceptor and ED for Enzyme Donor. In the assay, the ED portion fused to cAMP is made to compete with cAMP generated by cells for binding to a cAMP-specific antibody. The EA is then added to form active β-Gal with any unbound ED-cAMP. This active enzyme then converts a chemiluminescent substrate to generate an output signal that is recorded on a standard microplate reader. Briefly, 10000 cells per well are plated overnight and each well (cells incubated with 10 μl assay buffer) is then incubated with 4X serial concentration of the test compound in the cell assay buffer (5 μL) and cAMP antibody reagent (5 μL) for 30 min at 37° C. The cell lysis buffer (20 μL) containing ED-cAMP coupled enzyme fragment and the reporter substrate (Emerald II-Galacton Star, 5:1) is then added and incubated for 60 min at room temperature. Next, 20 μL of EA β-Gal fragment reagent is added. After further incubation for 120 min at room temperature, the chemiluminescence is measured by a plate reader (Envision).

MC-3R, sequence (P41968 whole entry): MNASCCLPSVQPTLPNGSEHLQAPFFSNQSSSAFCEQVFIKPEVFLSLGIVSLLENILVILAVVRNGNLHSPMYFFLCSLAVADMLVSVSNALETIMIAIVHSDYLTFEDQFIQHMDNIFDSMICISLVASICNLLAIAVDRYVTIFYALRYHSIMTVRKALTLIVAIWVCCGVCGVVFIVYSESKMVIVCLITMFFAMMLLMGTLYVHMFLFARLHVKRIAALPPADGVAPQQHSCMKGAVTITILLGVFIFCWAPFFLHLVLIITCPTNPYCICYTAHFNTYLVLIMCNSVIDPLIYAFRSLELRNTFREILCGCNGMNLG
MC-5R, sequence (P33032 whole entry): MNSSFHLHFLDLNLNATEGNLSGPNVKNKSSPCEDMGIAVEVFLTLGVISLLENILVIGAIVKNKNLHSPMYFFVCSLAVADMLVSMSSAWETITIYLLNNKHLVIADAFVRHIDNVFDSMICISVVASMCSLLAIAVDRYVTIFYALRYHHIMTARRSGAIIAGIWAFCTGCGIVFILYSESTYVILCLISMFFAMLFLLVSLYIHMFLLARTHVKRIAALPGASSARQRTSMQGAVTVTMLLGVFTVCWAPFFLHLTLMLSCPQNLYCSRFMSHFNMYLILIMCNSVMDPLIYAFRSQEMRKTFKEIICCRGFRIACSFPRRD
MC-1R, sequence (Q01726 whole entry): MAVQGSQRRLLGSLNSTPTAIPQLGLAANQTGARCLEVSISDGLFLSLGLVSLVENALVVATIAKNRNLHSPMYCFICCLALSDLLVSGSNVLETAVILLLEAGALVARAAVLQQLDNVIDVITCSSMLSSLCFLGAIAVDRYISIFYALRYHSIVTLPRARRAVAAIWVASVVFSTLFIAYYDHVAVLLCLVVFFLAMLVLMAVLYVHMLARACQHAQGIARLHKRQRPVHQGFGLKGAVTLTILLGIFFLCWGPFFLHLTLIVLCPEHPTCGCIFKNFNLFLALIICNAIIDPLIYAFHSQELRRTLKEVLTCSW

## CC(=O)N[C@@H](CCCNC(=N)N)C(=O)N[C@H]1CCSSC(C)(C)[C@@H](C(N)=O)NC(=O)[C@H](Cc2c[nH]c3ccccc23)NC(=O)[C@H](CCCNC(=N)N)NC(=O)[C@@H](Cc2ccccc2)NC(=O)[C@H](CC(N)=O)NC1=O [Compound 001554C, Ac-Arg-(hCys-Asn-D-Phe-Arg-Trp-Pen)-NH2] (Ac-R[hCys]N[dF]RW[Pen]-NH2; disulfide 2-7)
MC-1R
  Selectivity Ratios MC4R/MC1R: 146.75
MC-3R
  EC50: > 3000 nM
  Selectivity Ratios MC4R/MC3R: >1872.97
MC-5R
  Selectivity Ratios MC4R/MC5R: 459.17

## CC(=O)N[C@@H](CCCNC(=N)N)C(=O)N[C@H]1CCC(=O)NC[C@@H](C(N)=O)NC(=O)[C@H](Cc2c[nH]c3ccccc23)NC(=O)[C@H](CCCNC(=N)N)NC(=O)[C@@H](Cc2ccccc2)NC(=O)[C@H](CCC(N)=O)NC1=O [Compound 001576C, Ac-Arg-(Glu-Gln-D-Phe-Arg-Trp-Dpr)-NH2]
MC-1R
  Selectivity Ratios MC4R/MC1R: 35.57
MC-3R
  Selectivity Ratios MC4R/MC3R: 1.75
MC-5R
  Selectivity Ratios MC4R/MC5R: 101.41

## CC(=O)N[C@@H](CCCNC(=N)N)C(=O)N[C@H]1CSSC[C@@H](C(N)=O)NC(=O)[C@H](Cc2c[nH]c3ccccc23)NC(=O)[C@H](CCCNC(=N)N)NC(=O)[C@@H](Cc2ccccc2)NC(=O)[C@H](Cc2c[nH]cn2)NC(=O)[C@@H](C)NC1=O [RM-493, reference compound]
MC-5R; cAMP agonist readout, MC-5R, read-out: EC-50 (nM) MC-5R
  EC50: 1680 nM

## CC(=O)N[C@@H](CCCNC(=N)N)C(=O)N[C@H]1CCSSC(C)(C)[C@@H](C(N)=O)NC(=O)[C@H](Cc2c[nH]c3ccccc23)NC(=O)[C@H](CCCNC(=N)N)NC(=O)[C@@H](Cc2ccccc2)NC(=O)[C@H](CCC(N)=O)NC1=O [Compound 001555C, Ac-Arg-(hCys-Gln-D-Phe-Arg-Trp-Pen)-NH2] (Ac-R[hCys]Q[dF]RW[Pen]-NH2; disulfide 2-7)
MC-1R
  Selectivity Ratios MC4R/MC1R: 244.35
MC-3R
  Selectivity Ratios MC4R/MC3R: 2.68
MC-5R
  Selectivity Ratios MC4R/MC5R: 639.81

## CC(=O)N[C@@H](CCCNC(=N)N)C(=O)N[C@H]1CCSSC(C)(C)[C@@H](C(N)=O)NC(=O)[C@H](Cc2c[nH]c3ccccc23)NC(=O)[C@H](CCCNC(=N)N)NC(=O)[C@@H](Cc2ccccc2)NC(=O)[C@H](CO)NC1=O [Compound 001556C, Ac-Arg-(hCys-Ser-D-Phe-Arg-Trp-Pen)-NH2] (Ac-R[hCys]S[dF]RW[Pen]-NH2; disulfide 2-7)
MC-1R
  Selectivity Ratios MC4R/MC1R: 123.06
MC-3R
  EC50: > 3000 nM
  Selectivity Ratios MC4R/MC3R: >1615.55
MC-5R
  Selectivity Ratios MC4R/MC5R: 916.48

## CC(=O)N[C@@H](CCCNC(=N)N)C(=O)N[C@H]1CCSSC(C)(C)[C@@H](C(N)=O)NC(=O)[C@H](Cc2c[nH]c3ccccc23)NC(=O)[C@H](CCCNC(=N)N)NC(=O)[C@@H](Cc2ccccc2)NC(=O)[C@H]([C@@H](C)O)NC1=O [Compound 001574C, Ac-Arg-(hCys-Thr-D-Phe-Arg-Trp-Pen)-NH2] (Ac-R[hCys]T[dF]RW[Pen]-NH2; disulfide 2-7)
MC-1R
  Selectivity Ratios MC4R/MC1R: 465.77
MC-3R
  EC50: > 3000 nM
  Selectivity Ratios MC4R/MC3R: >2705.95
MC-5R
  Selectivity Ratios MC4R/MC5R: 1846.64
